Where two headings read alike, the source gives them in different places.
Columns and labels:
[1] = tested on: CT-DNA; assay: EB-DNA competitive binding (fluorescence quenching); design: species or system calf; details: compounds 10–100 μM; for quenching of the emission band of DNA-bound EB: % of the initial fluorescence intensity; for Quenching constant KSV: Stern–Volmer, DNA-EB 10 μM
Procedure: The competitive binding experiments were carried out on the EB–CT-DNA system by varying the concentrations of the ligands and complexes to get further information about the binding mode of compounds with DNA. In our studies, it was noted that upon concomitant addition of the compounds to the EB-DNA system, emission intensity decreased progressively, indicative of competition between EB and compounds towards CT-DNA in binding/chelation (Fig. S26 ^†). The reduction of the fluorescence emission intensity gives criteria to investigate the DNA binding propensity of the compounds and stacking interaction (intercalation) between the adjacent DNA base pairs.[45] […] This provides a direct evidence for the intercalative binding mode of the compounds with DNA.
Further quantitative measurement of the magnitude of interaction was ascertained by the classical Stern–Volmer equation. Quenching constant KSV is used to evaluate the quenching efficiency and is obtained from the slope of Io/I versus [Q] […] Further, the calculated KSV values of the compounds are significant when compared to the reported values.[30,31]
Supplementary Information
All the experiments involving CT-DNA binding were carried out in deionised water with tris(hydroxymethyl)-aminomethane (Tris, 5 mM) and sodium chloride (50 mM) and adjusted to pH 7.2 with hydrochloric acid at room temperature. The concentration of CT-DNA was determined by UV absorbance at 260 nm. Solutions of CT-DNA in Tris-HCl buffer gave a ratio of UV absorbance at 260 and 280 nm, A260/A280, of approximately 1.9, […]
The molar absorption coefficient, […]
[DNA]/[εa-εf]) = [DNA]/[ε b-εf]+1/Kb[εb-εf] (S1) […]
EB-DNA. The change in the fluorescence intensity was recorded. Before measurements, the system was shaken well and incubated at room temperature for 5 min. […]

[2] = DPPH radical scavenging assay; details: in methanol
Procedure: It has been reported that free radical species such as reactive oxygen species (ROS), are involved in the pathogenesis of various diseases through effects on DNA directly and by acting as a tumour promoter.[59,60] The DPPH free radical scavenging activity of the ligands and complexes were studied and quantitatively antioxidant properties were determined by using phosphomolybdate method. We knew that the inhibitory effects of the tested compounds on DPPH radical are concentration dependent and the suppression ratio increases with increasing sample concentrations (Fig. S36 ^†). […] In the phosphomolybdenum assay, the antioxidant activity is expressed as the number of equivalents of ascorbic acid (Table 6). The total antioxidant activity of the compounds is in the following order complex 3 > complex 2 > complex 1 > complex 4 > H2L^3 > H2L^2 > H2L^1 > H2L^4 > ascorbic acid > [RuHClCO(PPh3)3]. The results concluded that the metal complexes are better antioxidants than their parent ligands which may be due to the chelation of the ligands to metal ion.[35] The radical scavenging ability of the new complexes is greater than that of few other reported ruthenium complexes, containing Schiff base ligands.[9]
The DPPH radical scavenging activity of the compounds have been carried out according to the reported method.[74] In this study, various concentrations of the experimental standard ascorbic acid, [RuHCl(CO)(PPh3)3], ligands (20–100 μM) and complexes (2–10 μM) in methanol were taken. Total antioxidant activity of the compounds was determined by the phosphomolybdate method.[75]

[3] = tested on: S. pneumonie; assay: In vitro antibacterial assay (zone of inhibition, MIC); assay type: cell-based, Streptococcus pneumonie; details: for Minimum inhibitory concentration (MIC); head: IC50 VALUES / Zone of inhibition: S. pneumonie; for zone of inhibition at 50 µg/mL / zone of inhibition at 100 µg/mL: Streptococcus
Procedure: (§1) The free ligands and their cyclometallated ruthenium(II) carbonyl complexes were screened for their in vitro antimicrobial activity against certain pathogenic bacterial and fungal species at three different concentrations using disc diffusion method.
(§2) Antimicrobial activities of [RuHClCO(PPh3)3], ligands H2L^1–4 and new organometallic Ru(II) complexes (1–4) were evaluated by agar well diffusion method[76] as reported, by taking Staphylococcus aureus, Streptococcus pneumonie, Pseudomonas aeruginosa, Salmonella paratyphi and fungus such as Candida albicans, Trichophyton rubrum, Aspergillus niger, Aspergillus fumigatus and Candida tropicalis. The above said all test organisms were obtained from the MTCC, Chandigarh, India and Microbiological laboratory, Coimbatore, Tamil Nadu, India. The antimicrobial activity of the test compounds was checked with various concentrations (25 μg ml^−1, 50 μg ml^−1 and 100 μg ml^−1) against all the test pathogens. Gentamicin and ketoconazole were used as positive controls to study the antibacterial and antifungal activities respectively. Each experiment was performed in triplicate and the results are represented as average zone of inhibition and minimum inhibitory concentration of all the test pathogens.

[4] = tested on: P. aeruginosa; assay: as above; assay type: cell-based, Pseudomonas aeruginosa; details: for Minimum inhibitory concentration (MIC); head: IC50 VALUES / Zone of inhibition: P. aeruginosa; for zone of inhibition at 50 µg/mL / zone of inhibition at 100 µg/mL: Pseudomonas aeruginosa
Procedure: as §1, §2

[5] = tested on: S. paratyphi; assay: as above; assay type: cell-based, Salmonella paratyphi; details: for zone of inhibition at 50 µg/mL / zone of inhibition at 100 µg/mL: Salmonella enterica
Excerpt: The free ligands and their cyclometallated ruthenium(II) carbonyl complexes were screened for their in vitro antimicrobial activity against certain pathogenic bacterial and fungal species at three different concentrations using disc diffusion method. […] Tested complexes had better antimicrobial activity than the ligands against all pathogens. This may be explained by Tweedy's chelation theory.[61] Coordination of ligands reduce the polarity of the metal ion essentially by partial sharing of its positive charge with the donor groups within the chelate ring system formed during the coordination and leading to the increase in lipophilic nature of the central metal atom, which favours the effective permeation through the lipid layer of microorganism.[61,62] […] When tested against T. rubrum, the activity of the complexes in the order of 3 > 2 > 1 > 4. In antibacterial studies, the complex 3 was effective against S. aureus followed by complex 2, 1 and 4 and in the case of S. pneumonie the activity of the complexes follows the order of 3 > 1 > 4 > 2. […] When tested against S. paratyphi complex 1 stood out as good followed by the complexes 4, 3 and 2 respectively.
as §2

[6] = tested on: C. albicans; assay: In vitro antifungal assay (zone of inhibition, MIC); assay type: cell-based, Candida albicans; details: for Minimum inhibitory concentration (MIC); head: IC50 VALUES / Zone of inhibition: C. albicans; for zone of inhibition at 50 µg/mL / zone of inhibition at 100 µg/mL: Candida albicans
Procedure: as §1, §2

[7] = tested on: human normal keratinocyte cells (HaCaT); assay: MTT cytotoxicity assay; assay type: cell-based; details: 48 h, read-out: IC50 values HaCaT
Procedure: In order to investigate the selectivity of the compounds for cancer cells rather than normal cell lines, the compounds were also screened for their anticancer activity on the human normal keratinocyte cells (HaCaT).
Cytotoxic activity of the compounds was tested with human lung cancer cell lines A549, human breast cancer cell lines MCF-7 and human normal keratinocyte cells (HaCaT) by using MTT assay, which was done according to the earlier literature methods[77] and IC50 values obtained from nonlinear regression using GraphPad Prism 5.[78] The LDH release[79] and NO release[80] assays of the compounds was evaluated by the earlier reported methods.

SMILES | quenching of the emission band of DNA-bound EB [1] | Quenching constant KSV [1] | IC50 [2] | Minimum inhibitory concentration (MIC); head: IC50 VALUES [3] | Zone of inhibition ([3]; 50 µg/ml) | Zone of inhibition ([3]; 100 µg/ml) | Minimum inhibitory concentration (MIC); head: IC50 VALUES [4] | Zone of inhibition ([4]; 50 µg/ml) | Zone of inhibition ([4]; 100 µg/ml) | Zone of inhibition ([5]; 50 µg/ml) | Zone of inhibition ([5]; 100 µg/ml) | Minimum inhibitory concentration (MIC); head: IC50 VALUES [6] | Zone of inhibition ([6]; 50 µg/ml) | Zone of inhibition ([6]; 100 µg/ml) | IC50 ([7]; MTT, normal cells) | zone of inhibition at 50 µg/mL [3] | zone of inhibition at 100 µg/mL [3] | zone of inhibition at 50 µg/mL [4] | zone of inhibition at 100 µg/mL [4] | zone of inhibition at 50 µg/mL ([5]; 50 µg/ml) | further results
COc1ccc2[c]3c(c(=O)oc2c1)C(C)=[N+]1N=C(N)[S][Ru-4]31([C]#[O+])([P+](c1ccccc1)(c1ccccc1)c1ccccc1)[P+](c1ccccc1)(c1ccccc1)c1ccccc1 [Complex 1, [Ru(7MAC-tsc)(CO)(PPh3)2]] | 27.83% | 4.16 ± 0.002 × 10^3 M^−1 | 7.13 ± 0.23 µM | 15.86 ± 0.07 µM | 12.41±0.36 mm | 18.51±0.94 mm | 16.37 ± 0.19 µM | 13.23±0.32 mm | 16.66±0.44 mm | 12.55±0.04 mm | 18.95±0.31 mm | 15.19 ± 0.15 µM | 12.22±0.41 mm | 18.91±0.41 mm | > 40 µM |  |  |  |  |  | 
CNC1=N[N+]2=C(C)c3[c](c4ccc(OC)cc4oc3=O)[Ru-4]2([C]#[O+])([P+](c2ccccc2)(c2ccccc2)c2ccccc2)([P+](c2ccccc2)(c2ccccc2)c2ccccc2)[S]1 [Complex 2, [Ru(7MAC-mtsc)(CO)(PPh3)2]] | 36.67% | 5.52 ± 0.009 × 10^3 M^−1 | 6.75 ± 0.18 µM | 16.43 ± 0.09 µM | 13.21±0.13 mm | 17.14±0.12 mm | 14.81 ± 0.19 µM | 12.12±0.13 mm | 17.95±0.21 mm | 13.41±0.01 mm | 18.45±0.51 mm | 13.59 ± 0.15 µM | 12.45±0.31 mm | 16.28±0.10 mm | > 40 µM |  |  |  |  |  | 
CCNC1=N[N+]2=C(C)c3[c](c4ccc(OC)cc4oc3=O)[Ru-4]2([C]#[O+])([P+](c2ccccc2)(c2ccccc2)c2ccccc2)([P+](c2ccccc2)(c2ccccc2)c2ccccc2)[S]1 [Complex 3, [Ru(7MAC-etsc)(CO)(PPh3)2]] | 36.99% | 5.62 ± 0.003 × 10^3 M^−1 | 5.28 ± 0.24 µM | 14.85 ± 0.09 µM | 11.11±0.22 mm | 17.46±0.41 mm | 14.46 ± 0.18 µM | 13.23±0.52 mm | 17.34±0.45 mm | 12.53±0.14 mm | 17.44±0.27 mm | 13.24 ± 0.16 µM | 12.29±0.15 mm | 17.73±0.21 mm | > 40 µM |  |  |  |  |  | 
COc1ccc2[c]3c(c(=O)oc2c1)C(C)=[N+]1N=C(Nc2ccccc2)[S][Ru-4]31([C]#[O+])([P+](c1ccccc1)(c1ccccc1)c1ccccc1)[P+](c1ccccc1)(c1ccccc1)c1ccccc1 [Complex 4, [Ru(7MAC-ptsc)(CO)(PPh3)2]] | 28.92% | 4.00 ± 0.002 × 10^3 M^−1 | 7.39 ± 0.14 µM | 15.89 ± 0.12 µM | 12.31±0.48 mm | 16.54±0.12 mm | 15.66 ± 0.16 µM | 12.33±0.53 mm | 16.85±0.62 mm | 12.31±0.38 mm | 17.55±0.54 mm | 14.65 ± 0.13 µM | 12.49±0.14 mm | 17.19±0.66 mm | > 40 µM |  |  |  |  |  | 
COc1ccc2cc(C(C)=NNC(N)=S)c(=O)oc2c1 [H2L^1, ((1E)-1-(1-(7-methoxy-2-oxo-2H-chromen-3-yl)ethylidene)thiosemicarbazone)] |  |  |  |  |  |  |  |  |  |  |  |  |  |  |  | 12.38 ± 0.12 mm | 16.4 ± 0.31 mm | 13.2 ± 0.41 mm | 18.1 ± 0.24 mm | 13.2 ± 0.77 mm | zone of inhibition at 100 µg/mL ([5]; 100 µg/ml): 16.5 ± 0.46 mm; zone of inhibition at 50 µg/mL [6]: 11.2 ± 0.14 mm; zone of inhibition at 100 µg/mL [6]: 17 ± 0.91 mm; IC50 ([7]; Homo sapiens, HaCaT): > 40 µM
CNC(=S)NN=C(C)c1cc2ccc(OC)cc2oc1=O [H2L^2, ((1E)-1-(1-(7-methoxy-2-oxo-2H-chromen-3-yl)ethylidene) 4(N)-methylthiosemicarbazone)] |  |  |  |  |  |  |  |  |  |  |  |  |  |  |  | 12.1 ± 0.33 mm | 17.3 ± 0.41 mm | 12.6 ± 0.37 mm | 17.7 ± 0.45 mm | 13.43 ± 0.12 mm | zone of inhibition at 100 µg/mL ([5]; 100 µg/ml): 16.2 ± 0.57 mm; zone of inhibition at 50 µg/mL [6]: 13.38 ± 0.12 mm; zone of inhibition at 100 µg/mL [6]: 18.17 ± 0.15 mm; IC50 ([7]; Homo sapiens, HaCaT): > 40 µM
CCNC(=S)NN=C(C)c1cc2ccc(OC)cc2oc1=O [H2L^3, ((1E)-1-(1-(7-methoxy-2-oxo-2H-chromen-3-yl)ethylidene) 4(N)-ethylthiosemicarbazone)] |  |  |  |  |  |  |  |  |  |  |  |  |  |  |  | 11.2 ± 0.15 mm | 17.2 ± 0.21 mm | 12.5 ± 0.34 mm | 16.4 ± 0.23 mm | 12.2 ± 0.25 mm | zone of inhibition at 100 µg/mL ([5]; 100 µg/ml): 17.1 ± 0.32 mm; zone of inhibition at 50 µg/mL [6]: 11.3 ± 0.12 mm; zone of inhibition at 100 µg/mL [6]: 18.2 ± 0.22 mm; IC50 ([7]; Homo sapiens, HaCaT): > 40 µM
COc1ccc2cc(/C(C)=N\NC(=S)Nc3ccccc3)c(=O)oc2c1 [H2L^4, ((1E)-1-(1-(7-methoxy-2-oxo-2H-chromen-3-yl)ethylidene) 4(N)-phenylthiosemicarbazone)] |  |  |  |  |  |  |  |  |  |  |  |  |  |  |  | 12.2 ± 0.43 mm | 18.1 ± 0.22 mm | 12.1 ± 0.32 mm | 17.5 ± 0.65 mm | 12.2 ± 0.51 mm | zone of inhibition at 100 µg/mL ([5]; 100 µg/ml): 16.4 ± 0.51 mm; zone of inhibition at 50 µg/mL [6]: 12.3 ± 0.21 mm; zone of inhibition at 100 µg/mL [6]: 17.19 ± 0.15 mm; IC50 ([7]; Homo sapiens, HaCaT): > 40 µM

From publication PMC9077138, “An investigation on 3-acetyl-7-methoxy-coumarin Schiff bases and their Ru(II) metallates with potent antiproliferative activity and enhanced LDH and NO release” (RSC Advances, 2018)
